Earlier results in PubChem BioAssay AID1259409 (Chemical Carcinogenesis Research Information System (CCRIS), 2018).

Tested on: rodent chemically induced tumor inhibition, incidence and multiplicity
Test: CCRIS tumor inhibitor studies

CC1=C(/C=C/C(C)=C/C=C/C(C)=C/C=C/C=C(C)/C=C/C=C(C)/C=C/C2=C(C)CCCC2(C)C)C(C)(C)CCC1
tumour outcome (control, treated, inhibition, significance) (Carcinogen: 7,12-DIMETHYLBENZ[A]ANTHRACENE, 57-97-6, Dose [Inhibitor]: 0, 400 NMOL IN 200 µL ACETONE 2/WK BEGINNING 1 WK POST CARCINOGEN DOSE APPLIED SIMULTANEOUSLY WITH PROMOTER FOR 20 WK (S, Route [Inhibitor]: DERMAL, Species: MOUSE, Strain/Sex: ICR/?, Target Tissue: Type of Lesion: SKIN: PAPILLOMA, Dose [Carcinogen]: 100 UG ONCE, Promoter: 12-O-TETRADECANOYLPHORBOL-13-ACETATE, 16561-29-8): 69%, 25%, 64%, not calculated | tumour outcome (control, treated, inhibition, significance) (Carcinogen: 7,12-DIMETHYLBENZ[A]ANTHRACENE, 57-97-6, Dose [Inhibitor]: 0, 1430 IU/KG IN 100 µL PEANUT OIL 5 D/WK BEGINNING 1 WK POST CARCINOGEN DOSE AND CONTINUING FOR DURATION OF STUDY (STUD, Route [Inhibitor]: GAVAGE, Species: MOUSE, Strain/Sex: HRA/SKH/FEMALE, Target Tissue: Type of Lesion: SKIN: CARCINOMA, Dose [Carcinogen]: 10 NMOL IN 50 µL ACETONE ONCE): 7/25 (28%), 8/37 (22%), 21%, not calculated | outcome (Carcinogen: 7,12-DIMETHYLBENZ[A]ANTHRACENE, 57-97-6, Dose [Inhibitor]: 0, 1430 IU/KG IN 100 µL PEANUT OIL 5 D/WK BEGINNING 1 WK POST CARCINOGEN DOSE AND CONTINUING FOR DURATION OF STUDY (STUD, Route [Inhibitor]: GAVAGE, Species: MOUSE, Strain/Sex: HRA/SKH/FEMALE, Target Tissue: Type of Lesion: SKIN: PAPILLOMA, Dose [Carcinogen]: 10 NMOL IN 50 µL ACETONE ONCE): 97%, 77%, 21%, not calculated at 20 wk; 68%, 52%, 24%, not calculated at 40 wk | tumour outcome (control, treated, inhibition, significance) (Carcinogen: 7,12-DIMETHYLBENZ[A]ANTHRACENE, 57-97-6, Dose [Inhibitor]: 140 UG (1.5 MG/KG BW) IN 0.4 ML MINERAL OIL 3/WK FOR 28 WK (STUDY DURATION: 28 WK), Route [Inhibitor]: ORAL, Species: HAMSTER, Strain/Sex: SYRIAN/MALE, Target Tissue: Type of Lesion: SKIN: CARCINOMA, Dose [Carcinogen]: 0.1% IN HEAVY MINERAL OIL APPLIED TO BUCCAL POUCH 3/WK FOR 28 WK, Promoter: NONE USED): 20/20 (100%), 11/20 (55%), 45%, not calculated | tumour outcome (control, treated, inhibition, significance) (Carcinogen: 7,12-DIMETHYLBENZ[A]ANTHRACENE, 57-97-6, Dose [Inhibitor]: 250 MG/KG IN DIET BEGINNING 6 WK PRIOR TO CARCINOGEN DOSE AND CONTINUING FOR 21-22 WK POST CARCINOGEN DOSE (STUDY DURATI, Route [Inhibitor]: ORAL, Species: RAT, Strain/Sex: SPRAGUE-DAWLEY/MALE, Target Tissue: Type of Lesion: SALIVARY GLAND: TUMOR, Dose [Carcinogen]: 1 MG IN 20 µL OLIVE OIL INJECTED INTO SUBMANDIBULAR GLAND ONCE, Promoter: NONE USED): 20/28 (71%), 20/30 (67%), 6%, not significant | tumour outcome (control, treated, inhibition, significance) (Carcinogen: BENZO[A]PYRENE, 50-32-8, Dose [Inhibitor]: 0, 0.5 G/G OF DIET FOR 6 WK (STUDY DURATION: 9 WK), Route [Inhibitor]: ORAL, Species: MOUSE, Strain/Sex: NIGP(S)/FEMALE, Target Tissue: Type of Lesion: LUNG: ADENOMA, Dose [Carcinogen]: 0.5 MG INJECTED IN THE SCAPULAR REGION OF NEWBORN MICE ONCE, Promoter: NONE USED): 56%, 38%, 32%, not calculated | tumour outcome (control, treated, inhibition, significance) (Carcinogen: BENZO[A]PYRENE, 50-32-8, Dose [Inhibitor]: 0, 0.5 G/G OF DIET FOR 6 WK (STUDY DURATION: 9 WK), Route [Inhibitor]: ORAL, Species: MOUSE, Strain/Sex: NIGP(S)/MALE, Target Tissue: Type of Lesion: LUNG: ADENOMA, Dose [Carcinogen]: 0.5 MG INJECTED IN THE SCAPULAR REGION OF NEWBORN MICE ONCE, Promoter: NONE USED): 37%, 38%, -3%, not calculated | tumour outcome (control, treated, inhibition, significance) (Carcinogen: BENZO[A]PYRENE, 50-32-8, Dose [Inhibitor]: 0, 4.7 MICROMOLAR/D IN 0.1 ML PEANUT OIL BEGINNING 2 WK PRIOR TO CARCINOGEN TREATMENT AND CONTINUING TO 2 WK POST CARCIN, Route [Inhibitor]: GAVAGE, Species: MOUSE, Strain/Sex: SWISS/FEMALE, Target Tissue: Type of Lesion: FORESTOMACH: TUMOR, Dose [Carcinogen]: 1 MG 2/WK IN 0.1 ML PEANUT OIL FOR 4 WK, Promoter: NONE USED): 20/20 (100%), 3/20 (15%), 85%, p<0.001 | tumour outcome (control, treated, inhibition, significance) (Carcinogen: BENZO[A]PYRENE, 50-32-8, Dose [Inhibitor]: 2.5 MG/D IN DIET FOLLOWED 1 MO LATER BY 25 MG/0.250 KG BW BY GAVAGE 2/WK 2 HR PRIOR TO CARCINOGEN DOSE (STUDY DURATION:, Route [Inhibitor]: ORAL, GAVAGE, Species: MOUSE, Strain/Sex: SWISS/FEMALE, Target Tissue: Type of Lesion: SKIN: PAPILLOMA, SQUAMOUS EPITHELIOMA, Dose [Carcinogen]: 100 UG IN ACETONE 2/WK BEGINNING 1 MO AFTER AGENT DOSE AND CONTINUING FOR DURATION OF STUDY, Promoter: NONE USED): @65%, @55%, 15%, p<0.05 | tumour outcome (control, treated, inhibition, significance) (Carcinogen: BENZO[A]PYRENE, 50-32-8, UV IRRADIATION, Carcinogen: BENZO[A]PYRENE, 50-32-8, UV IRRADIATION, Dose [Inhibitor]: 2.5 MG/D IN DIET FOLLOWED 1 MO LATER BY 25 MG/0.250 KG BW BY GAVAGE 2/WK GIVEN 2 HR PRIOR TO CARCINOGEN DOSE (STUDY DURA, Route [Inhibitor]: ORAL, GAVAGE, Species: MOUSE, Strain/Sex: SWISS/FEMALE, Target Tissue: Type of Lesion: SKIN: PAPILLOMA, SQUAMOUS EPITHELIOMA, Dose [Carcinogen]: 100 UG IN ACETONE 2/WK BEGINNING 1 MO AFTER AGENT DOSE AND CONTINUING FOR DURATION OF STUDY PLUS UV IRRADIATION (5890 ER, Promoter: NONE USED): @93%, @40%, @57%, not calculated | tumour outcome (control, treated, inhibition, significance) (Carcinogen: DIESEL EXHAUST PARTICLES, Dose [Inhibitor]: 0, 0.02% IN BASAL DIET FOR DURATION FO STUDY (STUDY DURATION: 12 MO), Route [Inhibitor]: ORAL, Species: MOUSE, Strain/Sex: ICR/MALE, Target Tissue: Type of Lesion: LYMPHATIC SYSTEM: LYMPHOMA, Dose [Carcinogen]: 0.2 MG 1/WK FOR 10 WK, Promoter: NONE USED): 6/29 (21%), 5/30 (17%), 20%, not calculated | tumour outcome (control, treated, inhibition, significance) (Carcinogen: DIESEL EXHAUST PARTICLES, Dose [Inhibitor]: 0, 0.02% IN BASAL DIET FOR DURATION OF STUDY (STUDY DURATION: 12 MO), Route [Inhibitor]: ORAL, Species: MOUSE, Strain/Sex: ICR/ MALE, Target Tissue: Type of Lesion: LYMPHATIC SYSTEM: LYMPHOMA, Dose [Carcinogen]: 0.1 MG 1/WK FOR 10 WK, Promoter: NONE USED): 3/29 (10%), 2/30 (7%), 30%, not calculated | tumour outcome (control, treated, inhibition, significance) (Carcinogen: DIESEL EXHAUST PARTICLES, Dose [Inhibitor]: 0, 0.02% IN BASAL DIET FOR DURATION OF STUDY (STUDY DURATION: 12 MO), Route [Inhibitor]: ORAL, Species: MOUSE, Strain/Sex: ICR/MALE, Target Tissue: Type of Lesion: LUNG: TUMOR, Dose [Carcinogen]: 0.05 MG 1/WK FOR 10 WK, Promoter: NONE USED): 9/30 (30%), 6/30 (20%), 33%, not calculated | tumour outcome (control, treated, inhibition, significance) (Carcinogen: DIESEL EXHAUST PARTICLES, Dose [Inhibitor]: 0, 0.02% IN BASAL DIET FOR DURATION OF STUDY (STUDY DURATION: 12 MO), Route [Inhibitor]: ORAL, Species: MOUSE, Strain/Sex: ICR/MALE, Target Tissue: Type of Lesion: LUNG: TUMOR, Dose [Carcinogen]: 0.1 MG 1/WK FOR 10 WK, Promoter: NONE USED): 9/29 (31%), 10/30 (33%), -6%, not calculated | tumour outcome (control, treated, inhibition, significance) (Carcinogen: DIESEL EXHAUST PARTICLES, Dose [Inhibitor]: 0, 0.02% IN BASAL DIET FOR DURATION OF STUDY (STUDY DURATION: 12 MO), Route [Inhibitor]: ORAL, Species: MOUSE, Strain/Sex: ICR/MALE, Target Tissue: Type of Lesion: LUNG:TUMOR, Dose [Carcinogen]: 0.2 MG 1/WK FOR 10 WK, Promoter: NONE USED): 7/29 (24%), 8/30 (27%), -13%, not calculated | tumour outcome (control, treated, inhibition, significance) (Carcinogen: DIESEL EXHAUST PARTICLES, Dose [Inhibitor]: 0, 0.02% IN BASAL DIET FOR DURATION OF STUDY (STUDY DURATION: 12 MO), Route [Inhibitor]: ORAL, Species: MOUSE, Strain/Sex: ICR/MALE, Target Tissue: Type of Lesion: LYMPHATIC SYSTEM: LYMPHOMA, Dose [Carcinogen]: 0.05 MG 1/WK FOR 10 WK, Promoter: NONE USED): 3/30 (10%), 4/30 (13%), -30%, not calculated | tumour outcome (control, treated, inhibition, significance) (Carcinogen: DIESEL EXHAUST PARTICLES, Dose [Inhibitor]: 0, 0.02% IN HIGH FAT DIET FOR DURATION OF STUDY (STUDY DRUATION : 12 MO), Route [Inhibitor]: ORAL, Species: MOUSE, Strain/Sex: ICR/MALE, Target Tissue: Type of Lesion: LYMPHATIC SYSTEM: LYMPHOMA, Dose [Carcinogen]: 0.05 MG 1/WK FOR 10 WK, Promoter: NONE USED): 5/30 (17%), 5/30 (17%), 0%, not significant | tumour outcome (control, treated, inhibition, significance) (Carcinogen: DIESEL EXHAUST PARTICLES, Dose [Inhibitor]: 0, 0.02% IN HIGH FAT DIET FOR DURATION OF STUDY (STUDY DURATION: 12 MO), Route [Inhibitor]: ORAL, Species: MOUSE, Strain/Sex: ICR/MALE, Target Tissue: Type of Lesion: LUNG: TUMOR, Dose [Carcinogen]: 0.05 MG 1/WK FOR 10 WK, Promoter: NONE USED): 12/30 (40%), 9/30 (30%), 25%, not calculated
